According to patent US7598377B2, “Inhibition of phosphoinositide 3-kinase β” (AstraZeneca AB, priority 2002, dated 2009):
Entries after “also recorded” stand apart in the source; their conditions may differ.

Assays:
p70^S6 = p70^S6 (Homo sapiens, UniProt P23443); assay: Ser/Thr kinase assay by MDS Pharma Services (Panlabs); assay type: biochemical
EGF Receptor = EGF Receptor (Homo sapiens, UniProt P00533); assay: Tyrosine kinase assay by MDS Pharma Services (Panlabs); assay type: biochemical
PI4K = assay: PI4 kinase assay, immunoprecipitated from platelet lysate; assay type: biochemical
Protocol: (§1) For each immunoprecipitation, 1 mg of lysate was incubated with an anti-p110α (1 μg), anti-p110β (1 μg), anti-p110δ (1 μg) or anti-PI4 kinase antibody (2-5 μg) and 50 μl of a 50% slurry of protein A beads overnight at 4° C. […] For PI4 kinase assays, protein A beads-immune complexes were also washed twice with lysis buffer, prior to two washes with 1× PI4 kinase assay buffer (20 mM Hepes, pH 7.5, 10 mM MgCl2, 0.3% Triton X-100) and the addition of other assay constituents, as described above. All reactions were terminated by the addition of 100 μl 1 M HCl, 200 μl choloroform/methanol (1:1) and 500 μl 2 M KCl and lipids extracted by centrifugation at 15,000×g for 2 minutes. The production of PI3 or PI4 kinase lipid products, PtdIns(3)P and PtdIns(4)P, were confirmed through TLC analysis. The lipid spots were then removed from the TLC plate and the level of radioactivity quantified to accurately determine the level of PtdIns(3)P/PtdIns(4)P production.

PKC Non-selective = assay: Ser/Thr kinase assay by MDS Pharma Services (Panlabs); assay type: biochemical
Cdk2/cyclin A = Cdk2/cyclin A (Homo sapiens, UniProt P24941); assay: as above; assay type: biochemical
washed platelets [1] = assay: FACS analysis of integrin αIIbβ3 activation and P-selectin expression; assay type: cell-based; details: induced by thrombin, collagen and ADP; 0.5 μM TGX-221
Protocol: Agonists: Thrombin, 1 U/ml; ADP, […]; U46619, 1 μM; Soluble collagen 10 μg/ml.
Platelets were then stimulated with thrombin (1 U/ml), ADP ([…]), U46619 (1 μM) or collagen (10 μg/ml) for 20 min at room temperature prior to being fixed with 2% paraformaldehyde for 45 min at room temperature. Fixed platelets were washed twice with Tyrode's buffer, incubated with 1 μg/ml FITC-conjugated anti-mouse F(ab)2′ antibody for 15 min at room temperature, washed twice with Tyrode's buffer, resuspended to a final volume of 500 μl in Tyrode's buffer and analyzed by FACS.

Ab1 = Ab1 (Homo sapiens, UniProt P00519); assay: Tyrosine kinase assay by MDS Pharma Services (Panlabs); assay type: biochemical
[2] = test system: carotid artery occlusive thrombus formation in rats; assay: Electrolytic injury carotid model in rats; assay type: in vivo
Protocol: Treatments were given as an i.v. bolus at time−9 min (i.e. 5 min before applying the current). Error bars are average SEM from repeated-measures ANOVA. […] Error bars are ±1 SEM. Distal to the left carotid artery flow probe, a piece of Parafilm was inserted under the vessel for electrical isolation. The artery was placed onto a hook-shaped platinum electrode, after which, it was clamped distally to the electrode to occlude blood flow and a current of 7 mA was delivered for 4 min using a constant current unit (Model CCU1, Grass Instruments, Quincy, Mass., USA) connected to a Grass SD9 stimulator. The artery clamp was released immediately after this 4 min period. Blood flow was monitored for 60 min after the end of the stimulation. Thrombosis formation was defined by blood flow falling to zero.

[3] = test system: PI 3-kinase lipid products in platelets; assay: Shear-induced PI 3-kinase lipid products in platelets (cone & plate device, HPLC); assay type: cell-based
Protocol: Measurements of the lipid products PtdIns(4,5)P2 and PtdIns(3,4)P2 in intact platelets were performed by initially isolating lipids by HPLC and identifying lipid peaks using defined PtdIns(4,5)P2 and PtdIns(3,4)P2 standards. Lipids were integrated and normalized to total lipid applied and expressed as a fraction of untreated (control) samples.
For this assay, whole blood was collected in the presence of anti-coagulant [6 volumes blood to 1 volume anticoagulant (90 mM sodium citrate, 7 mM citric acid, pH 4.6, 140 mM dextrose and 70 mM theophylline)] and platelets isolated and washed using a modified method of Baezinger and Majerus (1974). Briefly, platelet-rich plasma (PRP) was obtained by centrifugation of whole blood at 200×g for 30 minutes. Platelets were then pelleted by centrifugation of the PRP at 2,000×g for 10 minutes. The platelet pellet was resuspended in platelet washing buffer (PWB) [4.3 mM K2HPO4, 4.3 mM Na2HPO4, 24.3 mM NaH2PO4, pH 6.5, 113 mM NaCl, 5.5 mM glucose, 0.5% bovine serum albumin (BSA) and 10 mM theophylline]. […] Lipid peaks co-eluting with commercially available PtdIns(3,4)P2 and PtdIns(4,5)P2 standards were integrated and normalized to total lipid applied and expressed as a fraction of control samples.

[4] = test system: platelets on immobilized vWf; assay: In vitro flow studies: platelet calcium flux and adhesion on immobilized vWf; assay type: cell-based
Protocol: The use of an in vitro-flow based adhesion assay enables us to simultaneously analyze platelet adhesion dynamics and activation (by monitoring cytosolic calcium flux) on immobilized von Willebrand factor (vWf). Briefly, isolated platelets are perfused through vWf (100 μg/ml) coated microcapillary tubes and analysis of cytosolic calcium flux conducted in real-time by confocal microscopy.
Washed platelets (1.5×10^9) suspended in PWB were incubated with the calcium indicator dyes, Oregon Green 488 BAPTA-1, AM (1 μM) and Fura Red, AM (1.25 μM), for 30 min at 37° C. Platelets were washed twice with PWB prior to being resuspended in Tyrode's buffer containing 1 mM calcium.
For static adhesion assays, platelets were allowed to settle on the surface of vWf-coated coverslips for 30 min at 37° C. For flow assays, platelets were either perfused over a vWf-coated microcapillary tube at a constant shear rate of 600, 1800 or 10,000 s^−1 or allowed to settle on the surface of a vWf-coated microcapillary tube prior to being accelerated through a shear gradient of 10,000 s^−1 over a 1 s interval. Real time platelet calcium flux in individual platelets was monitored at 1 s intervals over the 30 min incubation period or at 0.586 s intervals for up to 175 s for static and flow-based assays, respectively.

PKA Non-selective = assay: Ser/Thr kinase assay by MDS Pharma Services (Panlabs); assay type: biochemical
p110δ-PI3K = target: T1, p110δ-PI3K (Homo sapiens, UniProt O00329); assay: In vitro enzyme assay, p110δ immunoprecipitated from platelet lysate (Biological Example 1); assay type: biochemical; details: read-out: IC50 (μM), p110δ-PI3K
T1 construct: from tissue; host or cells: washed platelets (lysate, immunoprecipitated with anti-p110δ antibody)
Protocol: as §1

washed platelets [5] = assay: Shear-induced platelet aggregation (cone & plate device, single platelet count); assay type: cell-based; details: 5 min, vWf 10 μg/ml, 5000 s^−1 for 5 min, read-out: inhibition of shear induced platelet aggregation, IC50
Source text: Platelet samples were aspirated and the level of platelet aggregation determined by analyzing the number of unincorporated single platelets using a […] hematology analyzer. All data were normalized to control experiments and expressed as the proportional increase relative to control samples.

Sequence of Ab1 (P00519 whole entry): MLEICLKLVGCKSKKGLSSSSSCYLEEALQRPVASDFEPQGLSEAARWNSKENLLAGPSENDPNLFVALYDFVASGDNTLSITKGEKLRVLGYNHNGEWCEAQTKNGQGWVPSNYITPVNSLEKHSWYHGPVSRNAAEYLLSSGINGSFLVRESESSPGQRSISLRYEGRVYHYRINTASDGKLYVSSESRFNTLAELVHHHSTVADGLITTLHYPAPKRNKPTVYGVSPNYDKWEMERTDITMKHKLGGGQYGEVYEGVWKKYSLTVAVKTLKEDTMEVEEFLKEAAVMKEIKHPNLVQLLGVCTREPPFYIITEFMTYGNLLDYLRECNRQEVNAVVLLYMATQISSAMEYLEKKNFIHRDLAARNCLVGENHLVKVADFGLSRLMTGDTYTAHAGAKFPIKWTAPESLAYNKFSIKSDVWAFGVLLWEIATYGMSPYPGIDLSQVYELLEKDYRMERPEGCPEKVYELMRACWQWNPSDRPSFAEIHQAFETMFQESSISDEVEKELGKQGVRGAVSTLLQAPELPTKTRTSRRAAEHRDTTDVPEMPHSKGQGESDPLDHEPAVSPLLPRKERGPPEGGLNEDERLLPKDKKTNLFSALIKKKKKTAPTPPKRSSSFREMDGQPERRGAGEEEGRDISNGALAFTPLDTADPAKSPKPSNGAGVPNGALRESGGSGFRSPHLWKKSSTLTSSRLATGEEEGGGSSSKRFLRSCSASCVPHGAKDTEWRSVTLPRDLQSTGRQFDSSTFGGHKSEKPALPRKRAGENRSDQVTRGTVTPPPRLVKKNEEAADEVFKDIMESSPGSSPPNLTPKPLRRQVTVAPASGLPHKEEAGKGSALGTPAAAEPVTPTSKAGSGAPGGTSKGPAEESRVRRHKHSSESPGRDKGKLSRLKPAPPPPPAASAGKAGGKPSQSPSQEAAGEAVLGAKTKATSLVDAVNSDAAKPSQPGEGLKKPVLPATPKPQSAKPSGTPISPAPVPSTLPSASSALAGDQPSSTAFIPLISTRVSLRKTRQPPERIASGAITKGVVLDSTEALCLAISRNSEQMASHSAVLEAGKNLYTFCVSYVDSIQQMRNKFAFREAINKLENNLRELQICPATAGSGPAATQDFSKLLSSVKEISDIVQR
T1 sequence (O00329 whole entry): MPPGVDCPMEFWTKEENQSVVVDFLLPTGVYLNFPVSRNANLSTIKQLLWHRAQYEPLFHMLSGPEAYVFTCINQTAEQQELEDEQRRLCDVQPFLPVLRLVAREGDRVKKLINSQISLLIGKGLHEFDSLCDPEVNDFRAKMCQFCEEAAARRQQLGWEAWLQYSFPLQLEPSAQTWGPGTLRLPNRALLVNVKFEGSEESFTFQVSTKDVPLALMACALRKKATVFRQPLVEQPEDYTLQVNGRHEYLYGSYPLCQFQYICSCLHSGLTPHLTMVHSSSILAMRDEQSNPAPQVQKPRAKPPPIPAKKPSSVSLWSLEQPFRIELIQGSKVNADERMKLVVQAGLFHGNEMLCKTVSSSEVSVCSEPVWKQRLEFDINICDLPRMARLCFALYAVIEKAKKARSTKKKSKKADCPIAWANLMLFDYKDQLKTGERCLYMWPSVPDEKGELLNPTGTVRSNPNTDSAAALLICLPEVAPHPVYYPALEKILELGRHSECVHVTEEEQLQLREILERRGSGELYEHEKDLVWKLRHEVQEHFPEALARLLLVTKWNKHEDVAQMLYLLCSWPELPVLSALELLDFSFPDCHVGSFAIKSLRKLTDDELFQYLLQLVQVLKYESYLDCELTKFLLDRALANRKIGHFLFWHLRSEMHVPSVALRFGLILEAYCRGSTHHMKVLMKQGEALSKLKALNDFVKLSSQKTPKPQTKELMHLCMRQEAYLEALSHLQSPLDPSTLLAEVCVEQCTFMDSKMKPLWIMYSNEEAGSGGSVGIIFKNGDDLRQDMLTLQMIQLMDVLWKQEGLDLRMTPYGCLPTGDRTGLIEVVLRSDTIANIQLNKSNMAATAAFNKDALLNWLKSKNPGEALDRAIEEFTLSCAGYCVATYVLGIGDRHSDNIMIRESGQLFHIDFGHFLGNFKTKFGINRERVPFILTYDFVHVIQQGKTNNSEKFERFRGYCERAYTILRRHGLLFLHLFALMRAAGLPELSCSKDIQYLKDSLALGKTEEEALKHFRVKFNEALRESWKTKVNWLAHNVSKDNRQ
T1 sequence (P27986 whole entry partner): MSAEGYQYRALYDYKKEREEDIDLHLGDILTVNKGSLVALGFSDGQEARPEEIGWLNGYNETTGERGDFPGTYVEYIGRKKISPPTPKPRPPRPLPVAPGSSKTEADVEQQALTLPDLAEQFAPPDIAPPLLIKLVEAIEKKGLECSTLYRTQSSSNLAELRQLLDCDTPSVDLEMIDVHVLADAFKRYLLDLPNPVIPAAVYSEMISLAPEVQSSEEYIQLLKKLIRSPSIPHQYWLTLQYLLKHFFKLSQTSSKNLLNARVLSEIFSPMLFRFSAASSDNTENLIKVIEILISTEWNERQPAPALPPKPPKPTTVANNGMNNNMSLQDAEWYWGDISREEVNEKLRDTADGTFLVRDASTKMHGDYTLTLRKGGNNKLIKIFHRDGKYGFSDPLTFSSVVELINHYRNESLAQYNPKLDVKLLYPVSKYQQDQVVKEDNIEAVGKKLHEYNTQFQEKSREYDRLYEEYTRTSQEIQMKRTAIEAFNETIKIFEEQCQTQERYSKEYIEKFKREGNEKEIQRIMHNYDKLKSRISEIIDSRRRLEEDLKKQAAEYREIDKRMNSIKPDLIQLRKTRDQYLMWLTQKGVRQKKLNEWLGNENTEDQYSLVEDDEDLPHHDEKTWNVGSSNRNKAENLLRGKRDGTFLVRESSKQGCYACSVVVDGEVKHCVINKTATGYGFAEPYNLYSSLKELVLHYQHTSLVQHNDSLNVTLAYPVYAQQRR
Sequence of p70^S6 (P23443 24-525 limits assumed): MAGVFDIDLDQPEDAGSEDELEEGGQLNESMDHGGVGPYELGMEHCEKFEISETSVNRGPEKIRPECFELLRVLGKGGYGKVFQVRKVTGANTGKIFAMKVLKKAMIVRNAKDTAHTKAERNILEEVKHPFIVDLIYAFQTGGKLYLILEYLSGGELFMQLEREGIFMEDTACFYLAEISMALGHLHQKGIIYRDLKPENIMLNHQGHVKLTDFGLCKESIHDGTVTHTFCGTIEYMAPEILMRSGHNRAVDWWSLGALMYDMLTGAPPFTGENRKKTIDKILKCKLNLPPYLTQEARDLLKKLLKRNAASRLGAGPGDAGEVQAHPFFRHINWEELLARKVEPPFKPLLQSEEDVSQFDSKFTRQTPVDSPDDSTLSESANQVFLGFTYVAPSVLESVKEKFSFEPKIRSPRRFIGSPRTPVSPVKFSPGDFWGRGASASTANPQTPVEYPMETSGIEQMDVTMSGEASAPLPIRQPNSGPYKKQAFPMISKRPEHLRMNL
Sequence of EGF Receptor (P00533 25-1210): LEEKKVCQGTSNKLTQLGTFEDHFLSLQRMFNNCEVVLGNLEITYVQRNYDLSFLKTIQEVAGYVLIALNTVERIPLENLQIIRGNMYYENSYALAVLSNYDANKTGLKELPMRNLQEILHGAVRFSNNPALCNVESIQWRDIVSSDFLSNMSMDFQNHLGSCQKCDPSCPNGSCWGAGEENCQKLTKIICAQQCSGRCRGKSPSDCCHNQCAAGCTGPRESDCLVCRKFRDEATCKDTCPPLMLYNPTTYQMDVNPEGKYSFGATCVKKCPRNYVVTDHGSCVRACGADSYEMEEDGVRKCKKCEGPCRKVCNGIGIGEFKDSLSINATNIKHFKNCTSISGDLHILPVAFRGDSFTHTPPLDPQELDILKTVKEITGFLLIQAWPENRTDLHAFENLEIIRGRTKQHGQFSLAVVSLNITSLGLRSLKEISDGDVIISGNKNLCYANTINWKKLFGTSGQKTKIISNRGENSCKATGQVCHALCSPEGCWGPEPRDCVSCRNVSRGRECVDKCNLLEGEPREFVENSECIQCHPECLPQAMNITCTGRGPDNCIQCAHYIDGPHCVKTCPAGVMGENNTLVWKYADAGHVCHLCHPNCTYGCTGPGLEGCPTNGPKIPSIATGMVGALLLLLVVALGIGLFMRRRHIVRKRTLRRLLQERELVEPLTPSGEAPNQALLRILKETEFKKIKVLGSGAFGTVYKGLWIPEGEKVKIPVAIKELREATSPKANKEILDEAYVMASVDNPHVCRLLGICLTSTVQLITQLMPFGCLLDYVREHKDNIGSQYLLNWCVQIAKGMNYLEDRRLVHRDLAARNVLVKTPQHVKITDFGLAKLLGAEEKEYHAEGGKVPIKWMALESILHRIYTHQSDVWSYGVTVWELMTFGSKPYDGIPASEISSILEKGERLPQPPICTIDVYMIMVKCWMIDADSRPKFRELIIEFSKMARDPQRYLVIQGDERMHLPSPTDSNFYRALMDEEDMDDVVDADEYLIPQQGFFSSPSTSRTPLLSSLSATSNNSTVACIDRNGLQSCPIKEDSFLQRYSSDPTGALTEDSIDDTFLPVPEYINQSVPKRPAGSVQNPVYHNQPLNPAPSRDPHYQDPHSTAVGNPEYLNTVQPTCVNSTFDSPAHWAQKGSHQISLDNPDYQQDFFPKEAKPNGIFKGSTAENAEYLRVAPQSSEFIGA

IC50 (p70^S6): > 10 µM
IC50 (EGF Receptor): > 10 µM
IC50 (PI4K): > 10 µM
IC50 (PKC Non-selective): > 10 µM
IC50 (Cdk2/cyclin A): > 10 µM
IC50 (Ab1): > 10 µM
IC50 (PKA Non-selective): > 10 µM
IC50 (p110δ-PI3K): 0.1 µM
IC50 (washed platelets [5]): 0.05 to 0.1 µM
Compound: Cc1cc(C(C)Nc2ccccc2)c2nc(N3CCOCC3)cc(=O)n2c1 (racemic) [TGX-221, (±)-7-methyl-2-morpholin-4-yl-9-(1-phenylaminoethyl)-pyrido[1,2-a]pyrimidin-4-one]
inhibitory effect on PI4 kinase (PI4K; in words): minimal inhibitory effect
integrin αIIbβ3 activation (PAC-1 binding) (washed platelets [1]): unaffected
baseline arterial blood pressure, heart rate or carotid artery blood flow ([2]; both the Folts and electrolytic studies): no effect
occlusive thrombus formation ([2]; rats, 2 mg/kg in PG 5 minutes before injury, in words, 90% occlusion rate in vehicle-treated rats): completely prevented
carotid blood flow volume over the 60 min post-injury period ([2]; rats, 2 mg/kg, in words): preserving; also recorded: preserved
cellular levels of conventional phosphoinositides PtdIns, PtdIns(4)P and PtdIns(4,5)P2 ([3]; in words): without altering
PI 3-kinase lipid generation ([3]; shear 5000 s^−1, in words): selectively inhibited PI 3-kinase lipid generation
γ-independent GPIb calcium signalling ([4]; 0.5 μM): did not inhibit
platelet responses to accelerated shear ([4]; vWf matrix, shear rate gradient up to 10,000 s^−1 over 1 s): Eliminates Platelet Responses to Accelerated Shear
